Results as given in publication PMC6934184, “Selective DNA-PKcs inhibition extends the therapeutic index of localized radiotherapy and chemotherapy” (The Journal of Clinical Investigation, 2019).

Biological target: T1, CAMK2G (CaMKII gamma) (Homo sapiens, UniProt Q13555)
T1 construct: purchased Thermo Fisher Scientific (Life Technologies) SelectScreen
Experiment: SelectScreen LanthaScreen
Type: binding
Conditions: read-out: % displacement
Procedure, shortened: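 SelectScreen broad panel; activity (Z'LYTE, Adapta) plus binding formats. ATP: Km app for CSF1R Z'LYTE; 10 for CAMK1 Adapta. Readout = % per kinase.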

T1 sequence (Q13555 whole entry): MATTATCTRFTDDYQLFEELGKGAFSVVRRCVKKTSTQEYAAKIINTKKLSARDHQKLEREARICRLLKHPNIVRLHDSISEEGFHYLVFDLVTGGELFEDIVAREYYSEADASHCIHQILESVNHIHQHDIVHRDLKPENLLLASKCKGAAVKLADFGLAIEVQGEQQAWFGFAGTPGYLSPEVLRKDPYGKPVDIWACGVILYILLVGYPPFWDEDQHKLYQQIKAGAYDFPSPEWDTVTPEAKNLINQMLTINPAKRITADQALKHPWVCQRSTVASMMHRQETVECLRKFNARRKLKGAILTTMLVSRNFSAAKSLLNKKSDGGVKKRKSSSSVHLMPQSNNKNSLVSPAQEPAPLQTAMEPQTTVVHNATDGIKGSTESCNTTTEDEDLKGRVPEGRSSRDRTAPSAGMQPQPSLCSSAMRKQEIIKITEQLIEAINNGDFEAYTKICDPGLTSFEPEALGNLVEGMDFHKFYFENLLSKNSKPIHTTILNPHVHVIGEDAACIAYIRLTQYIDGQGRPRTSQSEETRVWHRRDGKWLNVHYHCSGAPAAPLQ

For CN(C(=O)CN1CCOCC1)c1ccc2sc3c(-c4cccc5c(=O)cc(N6CC7CCC(C6)O7)oc45)cccc3c2c1 [NU5455], the inhibition at 1 µM was -0.8%.
